# According to patent publication US11453679B2, “Methyl 2-methyl-5-oxo-1,4,5,7-tetradhydrofuro[3,4-b]pyridine-3-carboxylate compounds as Cav1.2 activators” (Novartis AG, priority 2020, dated 2022):
# Legend:
# [1] = Compound exposure in wild-type mice (cerebellum and blood, mass spectrometry); conditions: male, C57BL/6J, mouse, brain (cerebellum) and whole blood
# Experimental: Compound administration and brain tissue collection. Wild-type C57BL/6J male mice were obtained from Jackson laboratories (Bar Harbor, Me.). The acute, single-dose effects of Cav1.2 activators of the present disclosure were evaluated in male eight-week old mice (n=6 mice per compound). Each compound was dissolved in 10% PEG300, 10% Solutol, 10% Cremophore EL, and 70% Phosphate Buffered Saline and administered intraperitoneal (i.p.) at a concentration of 1 mg/kg up to 30 mg/kg depending on the compound. Animals were euthanized one hour after compound administration via exsanguination under deep anesthesia. Blood was collected in EDTA tubes for downstream analysis of drug levels. Brains were rapidly removed from the skull, and the cerebral cortex and cerebellum were regionally dissected. Cerebellar samples were snap frozen in liquid nitrogen to assess compound exposure.
# Quantification of compound exposure. Cerebellar tissue samples were homogenized in 4 mL of 20% acetonitrile and 80% Phosphate buffered saline for every 1 g of tissue (5× dilution). Tissue was homogenized using either of the following three methods: hand held probe system, TissueLyser system with 5 mm steel bead at a frequency of 30 s^−1 for 4 min, or OMNI Bead Ruptor Elite homogenizer for 30 seconds to 1 minute depending on tissue type. Tissue samples were added to a 96-well plate (12.5 μL sample) and processed for quantification by mass spectrometry.
# human Cav1.2 [2] = molecular target: T1, human Cav1.2 (Homo sapiens, UniProt Q13936); test: Sophion QPatch whole-cell voltage clamp dose-response assay, Cav1.2-HEK293(AUX) cell line (barium currents); conditions: for QPatch Emax: maximal fold change of peak inward current
# T1 sequence (Q13936 whole entry): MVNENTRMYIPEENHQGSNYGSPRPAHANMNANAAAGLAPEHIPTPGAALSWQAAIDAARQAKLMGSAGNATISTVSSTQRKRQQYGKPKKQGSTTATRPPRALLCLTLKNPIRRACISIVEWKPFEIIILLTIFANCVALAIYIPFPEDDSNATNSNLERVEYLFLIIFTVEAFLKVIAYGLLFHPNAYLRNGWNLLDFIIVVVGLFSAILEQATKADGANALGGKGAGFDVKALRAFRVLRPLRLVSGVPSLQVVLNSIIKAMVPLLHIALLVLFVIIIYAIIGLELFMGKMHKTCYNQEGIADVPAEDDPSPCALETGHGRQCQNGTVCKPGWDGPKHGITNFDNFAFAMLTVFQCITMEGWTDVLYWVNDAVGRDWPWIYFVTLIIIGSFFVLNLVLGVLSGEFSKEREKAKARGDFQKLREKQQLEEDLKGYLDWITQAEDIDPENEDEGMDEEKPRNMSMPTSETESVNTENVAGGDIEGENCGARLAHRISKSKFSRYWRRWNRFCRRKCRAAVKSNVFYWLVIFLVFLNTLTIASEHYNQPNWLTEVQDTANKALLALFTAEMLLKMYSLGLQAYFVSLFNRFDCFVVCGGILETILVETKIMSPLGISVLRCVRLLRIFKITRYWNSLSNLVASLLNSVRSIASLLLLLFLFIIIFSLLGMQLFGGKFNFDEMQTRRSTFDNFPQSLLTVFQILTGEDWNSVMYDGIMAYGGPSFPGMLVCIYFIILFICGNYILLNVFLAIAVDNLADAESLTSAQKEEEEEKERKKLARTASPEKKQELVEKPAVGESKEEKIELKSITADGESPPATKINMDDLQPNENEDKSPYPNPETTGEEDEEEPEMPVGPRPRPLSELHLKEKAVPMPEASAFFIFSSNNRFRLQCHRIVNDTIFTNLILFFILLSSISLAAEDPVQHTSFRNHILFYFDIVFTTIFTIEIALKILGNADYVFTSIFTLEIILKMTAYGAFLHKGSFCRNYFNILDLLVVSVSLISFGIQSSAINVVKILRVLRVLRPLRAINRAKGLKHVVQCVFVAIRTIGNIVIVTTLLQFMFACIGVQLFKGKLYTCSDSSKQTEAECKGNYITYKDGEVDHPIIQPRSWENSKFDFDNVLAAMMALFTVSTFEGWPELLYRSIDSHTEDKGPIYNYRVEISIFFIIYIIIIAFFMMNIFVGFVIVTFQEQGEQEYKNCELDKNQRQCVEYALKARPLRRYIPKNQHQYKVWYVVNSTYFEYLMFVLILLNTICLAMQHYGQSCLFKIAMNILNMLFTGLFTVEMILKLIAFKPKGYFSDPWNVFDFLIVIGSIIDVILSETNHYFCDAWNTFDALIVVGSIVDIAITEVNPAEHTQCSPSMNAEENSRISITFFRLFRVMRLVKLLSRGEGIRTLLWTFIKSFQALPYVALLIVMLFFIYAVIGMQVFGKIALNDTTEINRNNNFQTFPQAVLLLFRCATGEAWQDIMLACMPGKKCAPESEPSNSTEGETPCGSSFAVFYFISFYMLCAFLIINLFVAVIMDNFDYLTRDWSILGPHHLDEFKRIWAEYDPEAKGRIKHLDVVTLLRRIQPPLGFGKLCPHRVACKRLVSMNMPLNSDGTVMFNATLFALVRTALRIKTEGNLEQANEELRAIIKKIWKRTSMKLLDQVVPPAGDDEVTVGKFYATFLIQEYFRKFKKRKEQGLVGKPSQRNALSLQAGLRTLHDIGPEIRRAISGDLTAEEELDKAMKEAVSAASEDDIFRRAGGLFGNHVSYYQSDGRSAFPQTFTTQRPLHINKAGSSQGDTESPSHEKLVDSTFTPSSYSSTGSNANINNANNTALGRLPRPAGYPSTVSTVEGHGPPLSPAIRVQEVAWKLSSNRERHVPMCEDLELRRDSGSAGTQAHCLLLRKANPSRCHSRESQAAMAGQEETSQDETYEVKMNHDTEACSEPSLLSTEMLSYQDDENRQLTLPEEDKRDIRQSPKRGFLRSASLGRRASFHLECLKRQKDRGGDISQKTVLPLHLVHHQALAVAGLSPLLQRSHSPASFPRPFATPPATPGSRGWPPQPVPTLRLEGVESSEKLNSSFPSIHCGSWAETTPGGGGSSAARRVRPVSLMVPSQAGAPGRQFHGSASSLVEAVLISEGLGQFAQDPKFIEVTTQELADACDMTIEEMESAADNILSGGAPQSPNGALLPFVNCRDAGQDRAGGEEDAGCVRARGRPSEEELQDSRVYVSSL
# T1 sequence (Q9NY47 19-1001 partner limits assumed): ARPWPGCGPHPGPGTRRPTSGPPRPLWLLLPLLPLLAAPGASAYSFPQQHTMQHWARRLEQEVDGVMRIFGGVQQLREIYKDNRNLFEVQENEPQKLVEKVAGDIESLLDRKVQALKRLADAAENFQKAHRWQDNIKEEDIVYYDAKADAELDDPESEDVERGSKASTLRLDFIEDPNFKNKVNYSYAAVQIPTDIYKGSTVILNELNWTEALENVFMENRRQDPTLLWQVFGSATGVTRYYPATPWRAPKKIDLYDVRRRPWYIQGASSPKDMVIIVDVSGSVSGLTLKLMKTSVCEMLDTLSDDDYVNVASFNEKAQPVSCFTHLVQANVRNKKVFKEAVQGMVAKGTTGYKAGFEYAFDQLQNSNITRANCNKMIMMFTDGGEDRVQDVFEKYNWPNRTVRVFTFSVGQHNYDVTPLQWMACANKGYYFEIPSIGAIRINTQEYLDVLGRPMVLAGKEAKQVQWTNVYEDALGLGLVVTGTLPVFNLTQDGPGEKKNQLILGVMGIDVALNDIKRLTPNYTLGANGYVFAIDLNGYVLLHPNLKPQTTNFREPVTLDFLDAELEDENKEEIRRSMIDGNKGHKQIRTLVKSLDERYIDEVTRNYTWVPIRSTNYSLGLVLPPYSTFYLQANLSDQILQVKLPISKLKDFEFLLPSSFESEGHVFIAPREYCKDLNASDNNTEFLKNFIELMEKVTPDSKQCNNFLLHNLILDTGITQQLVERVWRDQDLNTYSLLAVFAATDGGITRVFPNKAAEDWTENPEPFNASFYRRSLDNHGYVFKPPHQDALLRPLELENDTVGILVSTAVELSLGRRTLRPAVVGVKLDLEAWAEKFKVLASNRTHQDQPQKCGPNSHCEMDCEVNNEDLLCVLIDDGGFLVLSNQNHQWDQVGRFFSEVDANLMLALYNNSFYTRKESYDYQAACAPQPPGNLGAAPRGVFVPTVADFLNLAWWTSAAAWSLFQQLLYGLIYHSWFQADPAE
# T1 sequence (Q9NY47 1002-1150 partner limits assumed): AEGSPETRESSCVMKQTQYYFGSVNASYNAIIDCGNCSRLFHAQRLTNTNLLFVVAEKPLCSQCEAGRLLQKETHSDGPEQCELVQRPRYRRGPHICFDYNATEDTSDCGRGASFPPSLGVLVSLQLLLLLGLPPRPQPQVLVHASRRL
# T1 sequence (Q08289 whole entry partner): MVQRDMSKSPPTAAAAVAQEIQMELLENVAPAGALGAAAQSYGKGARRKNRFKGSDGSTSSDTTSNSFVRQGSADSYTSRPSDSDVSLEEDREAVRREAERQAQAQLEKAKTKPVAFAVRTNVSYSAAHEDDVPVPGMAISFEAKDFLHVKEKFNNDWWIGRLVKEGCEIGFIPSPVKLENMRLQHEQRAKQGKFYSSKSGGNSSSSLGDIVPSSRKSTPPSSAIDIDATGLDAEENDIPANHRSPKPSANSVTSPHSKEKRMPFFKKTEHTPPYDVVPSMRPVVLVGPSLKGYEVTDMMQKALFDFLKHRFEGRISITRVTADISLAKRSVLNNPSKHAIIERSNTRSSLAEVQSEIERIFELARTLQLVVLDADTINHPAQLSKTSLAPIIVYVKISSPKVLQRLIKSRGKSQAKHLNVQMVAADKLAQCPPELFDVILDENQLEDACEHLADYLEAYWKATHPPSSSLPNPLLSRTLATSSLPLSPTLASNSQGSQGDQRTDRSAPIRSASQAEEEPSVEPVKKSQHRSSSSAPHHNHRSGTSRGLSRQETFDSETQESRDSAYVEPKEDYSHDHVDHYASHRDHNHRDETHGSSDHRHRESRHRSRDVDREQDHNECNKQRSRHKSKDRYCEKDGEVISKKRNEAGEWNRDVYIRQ
# Experimental: 24 hours prior an electrophysiology experiment, doxycycline (1 μg/ml) was added to the growth medium (Table 1), and 25 μM of verapamil was co-applied to prevent calcium influx triggered cell death. Cell confluency should reach 70%-80% right before the experiment.
# To harvest cells (from a T175 cm^2 flask as an example), growth media were removed completely, and the cells were rinsed with 10 mL of D-PBS. D-PBS was aspirated, and 10 mL of Detachin (Genlantis) was added and the plate was placed in a 37° C. incubator for 10 minutes. Detached cells were placed into a 15 mL conical tube and spun at 1000 rpm for 2 minutes. Supernatant was removed, and cells were re-suspended in QPatch complete media (Table 2) to desired cell density of 1.5-3 million cells per QPatch run. Each experimental run uses 1.5 mL of cells.
# The cells suspension was taken to the Sophion QPatch platform that uses whole-cell voltage clamp to measure barium currents conducted through Cav1.2 on single-hole QPlates. […] A dose-response assay protocol was used to determine the maximal fold change of peak inward current (Emax) and potency (EC50) of each compound. The protocol had eight liquid periods. The first liquid period was to stabilize current amplitude, which was monitored using repetitive 200-ms voltage pulses stepping from −80 mV to 0 mV. The second liquid period was to determine baseline current amplitude in the presence of vehicle control, using a single 20-ms voltage pulse stepping from −80 mV to 0 mV. The third through eighth liquid periods were used to ascertain a 6-dose response to compound treatments, also using single 20-ms voltage pulses stepping from −80 mV to 0 mV. The EC50 was generated using the following equation Iconcentration=Ibase+(Ifull−Ibase)*c^n/(XC50^n+c^n), where c is the concentration and n is the Hill coefficient constant. Ifull is the maximal current achievable, and Ibase is 0.
# cFos mRNA = cFos mRNA induction in cortex of wild-type mice (quantitative PCR); format: in vivo, C57BL/6J male mice; conditions: one hour after administration
# Experimental: Compound administration and brain tissue collection.
# Quantification of cFos mRNA induction. Tissue homogenization was performed using TissueLyser system for 96 well plates (Qiagen). First, frozen cortical samples were thawed, removed from RNAlater, and placed into TissueLyser tubes along with Buffer RLT containing 0.5% Reagent DX and one 5 mm TissueLyser metal bead. The TissueLyser tubes were loaded into a TissueLyser II tissue homogenizer for 3 rounds of homogenization, with each round lasting 5 minutes at 30 Hz bead-beating frequency. Total RNA was purified from the homogenate using RNeasy 96 Plus kit (Qiagen), RNA concentration and A260/A280 ratio were quantified via the Nanodrop (ThermoFisher), and all samples were normalized to 100 ng/μl concentration. RNA was reverse transcribed into cDNA using the Superscript III First-strand synthesis SuperMix Kit (ThermoFisher). For each sample, 6 μl of RNA (600 ng total) was mixed with 1 μL of Oligo dT and 1 μL of annealing buffer and heated to 65° C. for 5 minutes. Next, 10 μL of 2× First-Strand Reaction Mix and 2 μL of the Enzyme mix were added to achieve a total reaction volume of 20 μL. The samples were heated to 50° C. for 50 minutes then 85° C. for 5 minutes to complete cDNA synthesis.
# Quantitative PCR was performed on the cDNA samples using Quantitect Multiplex RT-PCR kit (Qiagen) in a 384-well assay format. Each PCR well contained 2 μL of cDNA (60 ng total), 10 μL of RT-PCR mastermix, 1 μL of cFos FAM Taqman probe (Mm00487425_m1 (FAM) #4351368), 1 μL of GAPDH VIC Taqman probe (Mm99999915-g1 (VIC) #4448486), 0.2 μL of Multiplex RT mix and 5.8 μl of RNase-free water. On the ViiA7 Real-Time PCR system (ThermoFisher), the samples were heated to 95° C. for 15 minutes then cycled between 94° C. for 45 seconds and 60° C. for 45 seconds for 45 cycles. cFos Ct values were exported, normalized to GAPDH Ct values, and converted to relative fold change in expression using the delta-delta Ct relative quantification method. cFos fold changes between compound treatments and vehicle were analyzed by one-way ANOVA, followed by Tukey's post-hoc comparisons.
# human Cav1.2 [3] = molecular target: T1, human Cav1.2; test: QPatch channel biophysics assay (current-voltage relationship, V1/2, tau of inactivation), Cav1.2-HEK293(AUX) cell line; format: cell-based; parameters: expressed in transfected cells; host or cells: Flp-In 293 T-Rex (HEK293), clone 2-19B, stably transfected with pCMV6-entry-CACNA1C and pcDNA5H/FRT-TO-CACNA2D2-FCS-P2A-CACNB2
# Experimental: Clonal isolation was achieved under Neomycin selection.
# Each experimental run uses 1.5 mL of cells.
# The protocol had eight liquid periods. […] The protocol had four liquid periods.
# [4] = QPatch EC50, 6-point dose response, 20-ms pulses from −80 mV to 0 mV, n = 1 unless marked (* n = 2, # n = 3)
# [5] = shift of half-way channel activation voltage (V1/2)
# [6] = QPatch EC50, comparative examples, known CaV1.2 activators (Table 6)
Compound,Kp at 1 h ([1]; ip),EC50 (human Cav1.2 [2]; [4]) [nM],QPatch Emax (human Cav1.2 [2]),% ↑cFOS mRNA cortex (3 mg/kg ip) (cFos mRNA) [%],Biophysics voltage shift (human Cav1.2 [3]; [5]) [mV],QPatch Emax (human Cav1.2 [2]; comparative examples (Table 6)),EC50 (human Cav1.2 [2]; [6]) [nM],Biophysics voltage shift (human Cav1.2 [3]; comparative examples (Table 6)) [mV],% ↑cFOS mRNA cortex (10 mg/kg ip) (cFos mRNA) [%],Kp at 1 h ([1]; intraperitoneal)
"CCc1c(F)cc(F)cc1[C@H]1C(C(=O)OC)=C(C)NC2=C1C(=O)OC2 (single isomer, unassigned) [Example 12]",0.8,110,1.4,128,−7.4,,,,,
"COC(=O)C1=C(C)NC(C)=C([N+](=O)[O-])[C@H]1c1ccccc1C(F)(F)F (single isomer, unassigned) [reference compound]",,,,,,3.9,,,,
"COC(=O)C1=C(C)NC2=C(C(=O)OC2)[C@H]1c1cc(F)cc(F)c1[C@H]1CC1(F)F (single isomer, unassigned) [Example 5, Methyl (S)-4-(2-((R or S)-2,2-difluorocyclopropyl)-3,5-difluorophenyl)-2-methyl-5-oxo-1,4,5,7-tetrahydrofuro[3,4-b]pyridine-3-carboxylate]",,53,2.5,,−7.2,,,,,
"COC(=O)C1=C(C)NC2=C(C(=O)OC2)[C@H]1c1cccc(F)c1CC(F)F [Example 17, (S)-methyl 4-(2-(2,2-difluoroethyl)-3-fluorophenyl)-2-methyl-5-oxo-1,4,5,7-tetrahydrofuro[3,4-b]pyridine-3-carboxylate]",,271,1.8,,−6.6,,,,,
"COC(=O)C1=C(C)NC2=C(C(=O)OC2)C1c1ccccc1C(F)(F)F (single isomer, unassigned) [reference compound]",,,,,,1.4,360,−4.3,,
"COC(=O)C1=C(C)NC2=C(C(=O)OC2)[C@H]1c1cccc(F)c1C(C)(C)F (single isomer, unassigned) [Example 8]",,218,1.6,,,,,,,
"COC(=O)C1=C(C)NC2=C(C(=O)OC2)[C@H]1c1cccc(F)c1[C@H](C)F (single isomer, unassigned) [Example 10, Methyl (S)-4-(3-fluoro-2-((S or R)-1-fluoroethyl)phenyl)-2-methyl-5-oxo-1,4,5,7-tetrahydrofuro[3,4-b]pyridine-3-carboxylate]",0.9,40,2.2,204,,,,,,
"COC(=O)C1=C(C)NC2=C(C(=O)OC2)[C@H]1c1cccc(F)c1[C@@H](F)CF (single isomer, unassigned) [Example 11, Methyl (S)-4-(2-((R or S)-1,2-difluoroethyl)-3-fluorophenyl)-2-methyl-5-oxo-1,4,5,7-tetrahydrofuro[3,4-b]pyridine-3-carboxylate]",,40,1.4,,−6.8,,,,,
"COC(=O)C1=C(C)NC2=C(C(=O)OC2)[C@H]1c1cccc(F)c1C1CC1 (single isomer, unassigned) [Example 4]",1.2,110,2.1,247,−4.5,,,,398,
"COC(=O)C1=C(C)NC2=C(C(=O)OC2)[C@H]1c1cc(F)cc(F)c1C(C)C (single isomer, unassigned) [Example 18]",,102,2.2,,−6.5,,,,,
"COC(=O)C1=C(C)NC2=C(C(=O)OC2)[C@H]1c1cccc(F)c1C1CC(F)C1 (single isomer, unassigned) [Example 20]",,86,1.6,,−6.1,,,,,
"CCOC(=O)C1=C(C)NC2=C(C(=O)OC2)[C@H]1c1ccccc1OCc1ccccc1 (single isomer, unassigned) [reference compound]",,,,,,4.3,450,−15.4,,
"C=C(c1c(F)cccc1[C@H]1C(C(=O)OC)=C(C)NC2=C1C(=O)OC2)C(F)(F)F [Example 16, (S)-methyl 4-(3-fluoro-2-(3,3,3-trifluoroprop-1-en-2-yl)phenyl)-2-methyl-5-oxo-1,4,5,7-tetrahydrofuro[3,4-b]pyridine-3-carboxylate]",0.6,4,1.5,121,−3.3,,,,,
"CCOC(=O)C1=C(C)NC2=C(C(=O)OC2)[C@H]1c1ccccc1OC(F)F (single isomer, unassigned) [reference compound]",,,,,,2.2,280,−6.7,,0.23
"COC(=O)C1=C(C)NC2=C(C(=O)OC2)[C@H]1c1cccc(F)c1C(C)C (single isomer, unassigned) [Example 15]",1.3,50,2,169,−6.6,,,,,
"CCc1c(F)cccc1[C@H]1C(C(=O)OC)=C(C)NC2=C1C(=O)OC2 (single isomer, unassigned) [Example 13]",1,220,1.5,165,−4.8,,,,281,
"C=C(c1c(F)cc(F)cc1[C@H]1C(C(=O)OC)=C(C)NC2=C1C(=O)OC2)C(F)(F)F (single isomer, unassigned) [Example 19]",2.9,12,1.7,138,−1.8,,,,,
"COC(=O)C1=C(C)NC2=C(C(=O)OC2)[C@H]1c1cc(F)cc(F)c1[C@@H](C)F (single isomer, unassigned) [Example 7, Methyl (S)-4-(3,5-difluoro-2-((S or R)-1-fluoroethyl)phenyl)-2-methyl-5-oxo-1,4,5,7-tetrahydrofuro[3,4-b]pyridine-3-carboxylate]",1.7,30,1.7,158,−6.6,,,,,
"COC(=O)C1=C(C)NC2=C(C(=O)OC2)C1c1ccccc1C (single isomer, unassigned) [reference compound]",,,,,,1.4,2240,,,
"COC(=O)C1=C(C)NC2=C(C(=O)OC2)[C@H]1c1cc(F)cc(F)c1[C@H]1CC1(F)F (single isomer, unassigned) [Example 6, Methyl (S)-4-(2-((R or S)-2,2-difluorocyclopropyl)-3,5-difluorophenyl)-2-methyl-5-oxo-1,4,5,7-tetrahydrofuro[3,4-b]pyridine-3-carboxylate]",,81,2.6,,−4.8,,,,,
"CCOC(=O)C1=C(C)NC2=C(C(=O)OC2)C1c1ccccc1C(F)(F)F (single isomer, unassigned) [reference compound]",,,,,,1.9,930,,,
"COC(=O)C1=C(C)NC2=C(C(=O)OC2)[C@H]1c1cccc(F)c1C1CCC1 (single isomer, unassigned) [Example 3]",,80,1.8,,−6.6,,,,,
"COC(=O)C1=C(C)NC2=C(C(=O)OC2)C1c1ccccc1OC(F)F (single isomer, unassigned) [reference compound]",,,,,,1.7,510,−7.1,,
